Measurements reported in patent US8598355B2, “Amide compound” (Astellas Pharma Inc., priority 2008, dated 2013).

Key:
rat EP4 receptor [1] = biological target: T1, rat EP4 receptor (Rattus norvegicus, UniProt P43114); experiment: In vivo rat EP4 receptor antagonistic activity (ONO-4819/LPS, plasma TNF-α); settings: SD rat, oral
Procedure: Evaluation Test of In Vivo Rat EP4 Receptor Antagonistic Activity
A solution of PEG 400:20% Tween 80:aqueous 1 M NaHCO3 solution=1:4:5 of a test compound was orally administered to a SD rat (male, 6-week old) under non-fasting conditions, and after 1 hour, ONO-4819 was administered subcutaneously to the back of the rat. After 30 minutes, Lipopolysaccharide (LPS, 0.01 mg/kg) was administered to the tail vein without anesthesia, and after 60 minutes, 0.5 mL of heparin blood was collected from the fundus under ether anesthesia. The blood sample was centrifuged (3000 rpm, 10 minutes) to separate the plasma, and then the TNF-α concentration in the rat plasma was measured by an ELISA kit (see Hepatology Research Journal, vol. 21, 252-260, 2001). A value obtained by subtracting the TNF-α concentration of the group treated with ONO-4819 from the TNF-α concentration of the group not treated with ONO-4819 was taken as 100%, and the inhibitory rates to the value were calculated for the test compounds.
In this connection, Ex represents the below-described Example compound number.

rat EP4 receptor [2] = biological target: T1, rat EP4 receptor; experiment: Evaluation test of rat EP4 receptor affinity ([3H]PGE2 binding, membrane fraction of HEK293 cells expressing rat EP4); parameters: expressed in transfected cells; host or cells: HEK293 cells, transient transfection with Lipofectamine 2000; membrane fraction; settings: [3H]PGE2 0.3 nM
Procedure: Evaluation Test of Rat EP4 Receptor Affinity
Cell Culturing and Transfection
Using a 10 cm collagen-coated dish (Asahi Glass), HEK293 cells were cultured in D-MEM culture medium, the culture medium was removed at a confluence (90 to 100% density state) and washed with a phosphate buffer saline (PBS), and then the cells were detached with N,N,N′,N′-tetrakis(carboxymethyl)ethylenediamine (EDTA). The number of the cells were counted and seeded on a 15 cm collagen-coated dish to a confluence of 70%. On the next day, to an Opti-MEM culture medium at 1.2 mL/dish was added Lipofectamine 2000 (Invitrogen) at 60 μL/dish, followed by leaving to stand at room temperature for 5 minutes. A plasmid in which rat EP4 (Sequence Number 1) had been inserted into a TA cloning site of pcDNA3.1-V5-His-topo was added thereto at 15 μg/dish. After leaving to stand at room temperature for 30 minutes, the resultant was added to the dish and cultured for 20 to 24 hours. The cell culture was carried out in a CO2 incubator (37° C., 5% CO2).
Preparation of Membrane Fraction
The culture medium was removed by suction, 10 mL of cooled PBS was added thereto per 15 cm dish, and the cells were scraped using a cell scraper (Sumitomo Bakelite). They were washed with cooled PBS (1,200 rpm, 4° C., 5 min), and then suspended in 6 mL of cooled 20 mM Tris-HCl (pH 7.4; Nakalai Tesque Inc., including 5 mM EDTA (Nakalai Tesque Inc.) per dish and the resultant was homogenized using a Polytron and the homogenate was centrifuged (26,000 rpm, 20 min, 4° C.). The obtained precipitate was resuspended in cooled 20 mM Tris-HCl and homogenized again using a Polytron, and the homogenate was centrifuged (26,000 rpm, 20 min, 4° C.). The obtained precipitate was resuspended in 50 mM HEPES (pH 7.5; Dojindo Laboratories) at 1 mL per dish, homogenized using a Polytron, and freeze-stored at −80° C. as a membrane fraction. At this time, a part thereof was used for the measurement of the protein concentration. Measurement of the protein concentration was carried out in duplicate using a Bio-Rad Protein assay kit (Bio-Rad Laboratories) in accordance with the appended standard Protocol.
[^3H]PGE2 50 μL (final concentration 0.3 nM; Perkin Elmer), 100 μL (20 μg/well) of a membrane fraction prepared from the rat EP4 expression cell and 50 μL of a test compound were mixed in a 96-well microplate (Sumitomo Bakelite), incubated at room temperature for 1 hour, filtered by suction on a UniFilter-96 GF/B (Perkin Elmer) using a FilterMate Harvester (Perkin Elmer), and then washed three times with 300 μL/well of a cooled assay buffer. Dilution of [^3H]PGE2 and the membrane fraction was carried out using an assay buffer (50 mM HEPES, 10 mM MgCl2), and dilution of the test compound and the unlabeled PGE2 was carried out using DMSO and an assay buffer. Further, in the case of the addition of a human serum albumin (HSA), dilution was carried out using an assay buffer containing 4% HSA (final concentration 1%; Sigma). The UniFilter-96 GF/B was treated preliminarily by washing twice with 200 μL/well of a cooled assay buffer. The UniFilter-96 GF/B after filtration was dried in a dryer overnight, 50 μL/well of MicroScint20 (Perkin Elmer) was added thereto, and then the radioactivity was measured using a TopCount (Perkin Elmer). For measurement of the non-specific binding, an unlabeled PGE2 (final concentration 1 μM; Cayman) was added. All of the measurements were carried out in duplicate, and the specific binding amount was determined by subtracting the non-specific binding amount from the total binding amount. The Ki value was calculated according to the general methods.
In the connection, Ex represents the below-described Example Compound number.

rat EP4 receptor [3] = biological target: T1, rat EP4 receptor; experiment: Rat EP4 receptor antagonistic activity by measurement of cAMP amount (rEP4 cAMP HTRF assay, CHO cells); assay type: cell-based; parameters: expressed in transfected cells; settings: inhibition of cAMP, PGE2 100 nM, CHO cells expressing rat EP4
Procedure: Evaluation Test of Rat EP4 Receptor Antagonistic Activity by Measurement of cAMP Amount
CHO cells in which rat EP4 had been forced to be expressed were seeded in 96-well plates at 2×10^4 cells/100 μL and cultured overnight. The culture medium was replaced with 2 μM Indomethacin/0.1% BSA/alpha-MEM, and further, after 60 minutes, replaced with 1 mM IBMX/2 μM Indomethacin/0.1% BSA/alpha-MEM. After 10 minutes, the test compound was added, and further, after 10 minutes, PGE2 was added at a final concentration of 100 nM. The cells were cultured and reacted in a CO2 incubator (37° C., 5% CO2). After 30 minutes, the culture medium was removed and 100 μL/well of 0.2% Triton X-PBS was added for lysis of the cells. The cAMP contained in this cell lysis solution was measured with a cAMP HiRange kit (Cisbio international). The cell lysis solution was disperesed at 10 μL each into a 384-well U-bottom black microplate (Corning), and a d2 reagent and an europium cryptate reagent were added in this order to each well, each in an amount of 5 μL. It was incubated at room temperature for 60 minutes under light shielding. After incubation, the fluorescence of the cryptate at 620 nm and the fluorescence of the d2 at 655 nm were measured using ARVO1420 (PerkinElmer). The cAMPs of 280, 70, 17.5, 4.38, 1.09, 0.27, and 0.068 nM were measured simultaneously for creating a standard curve. The inhibitory rates were calculated by determining the cAMP amount of each test sample to the value obtained by subtracting the cAMP amount of the group without addition of PGE2 from the cAMP amount of the group with addition of PGE2 of 100 nM. IC50 values are calculated by a Logistic regression method.

EP4 receptor = biological target: T2, EP4 receptor (Homo sapiens, UniProt P35408); experiment: EP4 receptor antagonistic activity by measurement of cAMP amount in human Jurkat cells (HTRF); assay type: cell-based; settings: inhibition of cAMP, PGE2 100 nM
T2 construct: endogenous in cells; host or cells: Jurkat cells (human leukemia T lymphoma), no transfection described
Procedure: Evaluation Test of EP4 Receptor Antagonistic Activity by Measurement of cAMP Amount in Human Jurkat Cells
Jurkat cells (derived from human leukemia T lymphoma) were cultured with RPMI1640 (added with 10% fetal bovine serum) using a F75 flask. After proliferation to semiconfluency, indomethacin having a final concentration of 5 μM was added thereto, and the cells were further cultured for 18 hours. The cells were collected in a 15-mL Spitz tube, prepared to be 1×10^6 cells/mL using a Cell Banker (Mitsubishi Kagaku Iatron), and stored at −80° C. until used for assay. The cells were cultured in a CO2 incubator (37° C., 5% CO2).
A cAMP HiRange kit (Cisbio international) was used for cAMP measurement. A test compound, PGE2, and the cells were diluted and prepared with an assay buffer. The test compound was prepared to have a 3-fold concentration relative to the final concentration, PGE2 was prepared to be 300 nM, and the Jurkat cells frozen stored were prepared to be 1×10^6 cells/mL by thawing them at 37° C. To a 384-well U-bottom black microplate (Corning) were added the test compound, the cells, and PGE2 in this order in each in an amount of 5 μL, followed by shaking with a plate shaker and incubating at room temperature for 30 minutes. After incubation, 5 μL of a d2 reagent which had been diluted 0.6-fold with a lysis buffer was added to each well, followed by shaking with a plate shaker. Subsequently, 5 μL of an europium cryptate reagent which had been diluted 0.6-fold with a lysis buffer was added to each well, followed by shaking with a plate shaker and incubating at room temperature for 60 minutes under light shielding. After incubation, the fluorescence of the cryptate at 620 nm and the fluorescence of the d2 at 655 nm were measured using ARVO1420 (PerkinElmer). The cAMPs of 280, 70, 17.5, 4.38, 1.09, 0.27, and 0.068 nM were measured simultaneously for creating a standard curve. All measurements were performed in quadruplicate, and inhibitory rates were calculated by determining the cAMP amount of each test sample to the value obtained by subtracting the cAMP amount of the group without addition of PGE2 from the cAMP amount of the group with addition of PGE2 of 100 nM. IC50 values were calculated by a Logistic regression method.
In this connection, as the “assay buffer” and “lysis buffer” above, those as shown below were used:
Assay buffer; 1×HBSS (Hanks buffered salt solution, Nissui Pharmaceutical Co., Ltd.), 20 mM HEPES (pH 7.4, Nakarai Tesque), 0.5 mM IBMX (3-isobutyl-1-methylxanthine, WAKO), 0.02% CHAPS (Sigma), 0.1% Bovine serum albumin (Sigma), 2 μM Indomethacin (Sigma)
Lysis buffer; 50 mM NaPO4, 0.8 M KF, 1% Triton X-100, 0.2% Bovine serum albumin

T1 sequence (P43114 whole entry): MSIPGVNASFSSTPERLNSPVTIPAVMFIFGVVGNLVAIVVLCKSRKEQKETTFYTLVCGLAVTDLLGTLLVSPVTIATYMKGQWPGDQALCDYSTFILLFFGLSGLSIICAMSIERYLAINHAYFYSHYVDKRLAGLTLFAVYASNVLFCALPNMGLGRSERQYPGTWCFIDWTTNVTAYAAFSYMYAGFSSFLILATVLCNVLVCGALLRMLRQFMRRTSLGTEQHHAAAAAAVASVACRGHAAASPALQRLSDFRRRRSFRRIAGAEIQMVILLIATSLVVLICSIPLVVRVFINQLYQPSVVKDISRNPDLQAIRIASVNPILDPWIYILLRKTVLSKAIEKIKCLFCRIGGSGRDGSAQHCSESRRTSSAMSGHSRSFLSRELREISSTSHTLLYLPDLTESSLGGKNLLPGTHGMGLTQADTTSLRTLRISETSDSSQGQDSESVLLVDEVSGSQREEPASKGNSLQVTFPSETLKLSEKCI
T2 sequence (P35408 whole entry): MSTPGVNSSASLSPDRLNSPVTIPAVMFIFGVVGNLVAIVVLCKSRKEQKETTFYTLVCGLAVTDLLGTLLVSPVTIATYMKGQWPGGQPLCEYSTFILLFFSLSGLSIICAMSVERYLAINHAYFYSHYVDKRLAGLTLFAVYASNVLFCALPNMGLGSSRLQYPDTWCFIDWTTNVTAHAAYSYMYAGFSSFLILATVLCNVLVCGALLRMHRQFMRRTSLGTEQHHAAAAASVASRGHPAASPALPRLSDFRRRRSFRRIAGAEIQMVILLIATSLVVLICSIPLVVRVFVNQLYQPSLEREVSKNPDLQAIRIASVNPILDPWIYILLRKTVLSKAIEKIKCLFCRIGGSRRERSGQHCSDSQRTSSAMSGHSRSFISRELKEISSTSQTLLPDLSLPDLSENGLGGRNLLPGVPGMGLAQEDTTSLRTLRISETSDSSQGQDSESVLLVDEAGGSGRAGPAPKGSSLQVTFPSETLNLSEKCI

Inhibitory rate (%) (rat EP4 receptor [1]; dose 0.003 mg/kg)	melting point	Ki (rat EP4 receptor [2]) [nM]	IC50 (rat EP4 receptor [3]) [nM]	IC50 (EP4 receptor) [nM]	Inhibitory rate (%) (rat EP4 receptor [1]; dose 0.01 mg/kg)	Compound
71	251 to 252 °C (dec.)	2.1				Cc1cc(C(=O)NC[C@H]2CC[C@H](C(=O)O)CC2)c2c(ccn2Cc2cc3ccccc3cn2)c1 [Example 224]
		0.76	0.99	0.11		C[C@H](NC(=O)c1cccc2ccn(Cc3ccc(-c4ccccc4)cc3)c12)c1ccc(C(=O)O)cc1 [Example 3, 4-[(1S)-1-({[1-(biphenyl-4-ylmethyl)-1H-indol-7-yl]carbonyl}amino)ethyl]benzoic acid]
	208 to 210 °C	2.6			71	O=C(O)c1ccc(CNC(=O)c2cc(C(F)(F)F)cc3ccn(CCOc4ccc(Cl)cc4)c23)cc1 [Example 215]
